Test results taken from patent publication US10913771B2, “Peptide for preventing or treating inflammatory diseases and use thereof” (KINE SCIENCES Co., Ltd., priority 2016, dated 2021).
Several values for one entry are separate records, joined by “and”; a condition that tells them apart may be missing. Equal values may be shown once. Ends that are not written are not given here.

Tests used:
[1] = system: collagen-induced arthritis (CIA) mouse model; experiment: Arthritis progression index in collagen-induced arthritis mouse model; assay type: in vivo, DBA/1J mouse
Method: In Example 2, using a collagen-induced arthritis mouse model in the following document, a therapeutic effect of a PSP dimer or trimer for a representative inflammatory disease, rheumatoid arthritis was confirmed (Nat Protoc. 2007; 2(5):1269-75.).
A collagen-induced arthritis (CIA) mouse model was prepared as follows, as an autoimmune disease-based arthritis model with characteristics similar to human rheumatoid arthritis.
First, a bovine type II collagen (Chondrex Corporation, USA) and a Freund's complete adjuvant (Chondrex Corporation, USA) were mixed at a ratio of 1:1 and emulsified, and then 50 μl of the emulsified collagen solution was injected intradermally into the tail of a 6-week-old DBA/1J mouse to induce primary immunization. At two weeks after the primary immunization, the bovine type II collagen and the Freund's complete adjuvant were mixed at a ratio of 1:1 and emulsified, and then 50 μl of the emulsified collagen solution was injected intradermally into the tail of the mouse again to induce secondary immunization (boosting). After the secondary immunization, the peptide of the present invention (the PSP dimer (1 μmole) or the PSP trimer (1 μmole)) was administered intraperitoneally three times a week from the next day, and as a comparative experimental group, a PSP monomer-treated group and as a control (Vehicle control), a PBS-treated group were used, respectively. The preparation process of the collagen-induced arthritis mouse model and the administration time of the peptide were schematically illustrated in FIG. 1.
In order to investigate the development of arthritis progression according to the peptide treatment of the present invention, the deepening degree of arthritis with time was measured by evaluating an arthritis progression index. Two observers who were unaware of the specific experimental conditions evaluated progression of arthritis three times a week. In this case, the arthritis progression index was evaluated by 0 to 4 scores per leg according to an arthritis progression evaluation standard by Rossoliniec and the like in Table 2 below to be represented by a total of 0 to 16 scores (a sum of four legs), and thereafter, two observers calculated an average value of the evaluated results to digitize the severity of arthritis.
Methotrexate (MTX), one of drugs which are used as arthritis therapeutic agents in a current clinical practice, had excellent anti-inflammatory and arthritis therapeutic effects as an immunodepressant, but may have side effects such as toxicity to normal cells, oral ulcer, alopecia, interstitial pneumonia, bone marrow suppression, and the like. As a result, the methotrexate is known as a drug that needs to pay close attention after medication with sufficient medication counseling. In Example 2, the arthritis therapeutic effect with the peptide of the present invention and methotrexate (1 mg/kg) was evaluated and compared with the arthritic progression index by using the same method as Example 2-2.

[2] = Evaluation of toxicity: mortality and change in body weight after intraperitoneal administration; assay type: in vivo; settings: individual mouse
Method: In Example 3, in order to confirm the toxicity of the peptide of the present invention, the PSP dimer or the PSP trimer was intraperitoneally administered to mouse at various concentrations (0.1 μmole, 1 μmole, and 10 μmole), and then the mortality and a change in body weight of each mouse were measured. On the other hand, as a control, a non-administration group (Normal) and a PBS-treated group (PBS) were used.

Compound: CN(Cc1cnc2nc(N)nc(N)c2n1)c1ccc(C(=O)N[C@@H](CCC(=O)O)C(=O)O)cc1 [MTX, methotrexate]
- arthritis progression index ([1]; Table 6, day 14, comparison of PSP dimer with methotrexate (1 mg/kg), 0 to 16 scores): 0.0
- arthritis progression index ([1]; Table 6, day 17, comparison with methotrexate (1 mg/kg)): 0.0
- arthritis progression index ([1]; Table 6, day 20, comparison with methotrexate (1 mg/kg)): 0.0
- arthritis progression index ([1]; Table 6, day 22, comparison with methotrexate (1 mg/kg)): 0.0
- arthritis progression index ([1]; Table 6, day 25, comparison with methotrexate (1 mg/kg)): 0.0
- arthritis progression index ([1]; Table 6, day 27, comparison with methotrexate (1 mg/kg)): 1.0
- arthritis progression index ([1]; Table 6, day 29, comparison with methotrexate (1 mg/kg)): 0.8
- arthritis progression index ([1]; Table 6, day 31, comparison with methotrexate (1 mg/kg)): 2.8
- arthritis progression index ([1]; Table 6, day 35, comparison with methotrexate (1 mg/kg)): 3.2
- arthritis progression index ([1]; Table 7, day 14, comparison of PSP trimer with methotrexate (1 mg/kg), 0 to 16 scores): 0.0
- arthritis progression index ([1]; Table 7, day 17, comparison with methotrexate (1 mg/kg)): 0.0
- arthritis progression index ([1]; Table 7, day 20, comparison with methotrexate (1 mg/kg)): 0.0
- arthritis progression index ([1]; Table 7, day 22, comparison with methotrexate (1 mg/kg)): 0.0
- arthritis progression index ([1]; Table 7, day 25, comparison with methotrexate (1 mg/kg)): 0.0
- arthritis progression index ([1]; Table 7, day 27, comparison with methotrexate (1 mg/kg)): 1.0
- arthritis progression index ([1]; Table 7, day 29, comparison with methotrexate (1 mg/kg)): 0.8
- arthritis progression index ([1]; Table 7, day 31, comparison with methotrexate (1 mg/kg)): 2.8
- arthritis progression index ([1]; Table 7, day 35, comparison with methotrexate (1 mg/kg)): 3.2

Compound: PSPPSP [PSP dimer, PSPPSP]
- Body weight ([2]; PSP dimer 0.1 μmol intraperitoneal, day 15): 20.7 g and 20.2 g and 21.6 g and 21 g and 20.1 g and 20.9 g and 19.9 g
- Body weight ([2]; PSP dimer 0.1 μmol intraperitoneal, day 18): 20.7 g and 21.1 g (2×) and 22.7 g and 22.4 g and 21.2 g and 21.8 g
- Body weight ([2]; PSP dimer 0.1 μmol intraperitoneal, day 22): 23.3 g and 21.9 g and 23.5 g and 22.9 g and 21.4 g and 23.1 g and 22.3 g
- Body weight ([2]; PSP dimer 0.1 μmol intraperitoneal, day 25): 22.7 g and 21.4 g and 22.1 g and 23 g and 21.1 g and 22.5 g and 21.7 g
- Body weight ([2]; PSP dimer 0.1 μmol intraperitoneal, day 29): 23.2 g (2×) and 21.7 g (2×) and 22.7 g and 23.3 g and 19.5 g
- Body weight ([2]; PSP dimer 0.1 μmol intraperitoneal, day 32): 23.5 g and 22.1 g and 23.3 g and 22.7 g and 19.3 g and 23.9 g and 21 g
- Body weight ([2]; PSP dimer 0.1 μmol intraperitoneal, day 36): 23.7 g and 18.6 g (2×) and 22.4 g and 22.3 g and 24.2 g and 20.2 g
- Body weight ([2]; PSP dimer 1 μmol intraperitoneal, day 18): 23.3 g and 20 g and 22.5 g and 22.1 g and 20.8 g and 21.8 g and 21.1 g
- Body weight ([2]; PSP dimer 1 μmol intraperitoneal, day 22): 24.4 g and 20.7 g and 22.5 g (3×) and 23.2 g and 21.5 g
- Body weight ([2]; PSP dimer 1 μmol intraperitoneal, day 25): 23.9 g and 19.6 g and 21.8 g and 22.9 g and 21.6 g and 22.3 g and 22.4 g
- Body weight ([2]; PSP dimer 1 μmol intraperitoneal, day 29): 23.9 g and 20.1 g and 21.8 g and 23.4 g and 21.3 g and 22.7 g and 23.1 g
- Body weight ([2]; PSP dimer 1 μmol intraperitoneal, day 36): 23 g (2×) and 20.7 g and 23.4 g and 21.4 g and 19.4 g and 24.5 g
- Body weight ([2]; PSP dimer 10 μmol intraperitoneal, day 15): 19.5 g
- Body weight ([2]; PSP dimer 10 μmol intraperitoneal, day 18): 20.8 g

Compound: PSPPSPPSP [PSP trimer, PSPPSPPSP]
- Body weight ([2]; PSP trimer 0.1 μmol intraperitoneal, day 15): 20.75 g (2×) and 20.64 g and 21.54 g and 19.43 g and 22.27 g and 21.68 g
- Body weight ([2]; PSP trimer 0.1 μmol intraperitoneal, day 17): 21 g and 20.6 g and 21.5 g and 19.1 g and 22.3 g and 21.3 g and 21.7 g
- Body weight ([2]; PSP trimer 0.1 μmol intraperitoneal, day 20): 21.2 g and 21.3 g and 20.8 g and 19.6 g and 22.9 g and 21.9 g and 21.7 g
- Body weight ([2]; PSP trimer 0.1 μmol intraperitoneal, day 24): 22.2 g and 21.7 g and 22.6 g and 19.9 g and 23.8 g and 22.8 g and 21.9 g
- Body weight ([2]; PSP trimer 0.1 μmol intraperitoneal, day 27): 21.3 g and 21.4 g and 22.7 g and 19.5 g and 23.6 g and 22.2 g and 21.8 g
- Body weight ([2]; PSP trimer 0.1 μmol intraperitoneal, day 31): 20.3 g and 21.3 g and 21 g (2×) and 18.6 g and 24.3 g and 23.3 g
- Body weight ([2]; PSP trimer 0.1 μmol intraperitoneal, day 34): 19.7 g and 20.5 g and 19.8 g and 18.1 g and 24.1 g and 23 g and 21.3 g
- Body weight ([2]; PSP trimer 1 μmol intraperitoneal, day 15): 20.76 g and 21.15 g (2×) and 21.62 g and 21.02 g and 20.4 g and 19.02 g
- Body weight ([2]; PSP trimer 1 μmol intraperitoneal, day 17): 21.5 g (2×) and 21.1 g and 22.2 g and 21.7 g and 21.3 g and 19.1 g
- Body weight ([2]; PSP trimer 1 μmol intraperitoneal, day 20): 22.3 g and 21.6 g and 22.9 g and 22.1 g and 21.8 g and 20.8 g and 19.2 g
- Body weight ([2]; PSP trimer 1 μmol intraperitoneal, day 24): 23.2 g and 22.6 g and 23.8 g and 22.7 g (2×) and 21.3 g and 20.2 g
- Body weight ([2]; PSP trimer 1 μmol intraperitoneal, day 27): 22.3 g and 22.4 g and 23.8 g and 22.8 g and 22.6 g and 21.5 g and 19.8 g
- Body weight ([2]; PSP trimer 1 μmol intraperitoneal, day 31): 21.4 g (2×) and 22.7 g and 22.8 g and 22.5 g and 21.7 g and 19.9 g
- Body weight ([2]; PSP trimer 1 μmol intraperitoneal, day 34): 20.1 g and 22.6 g and 21.1 g and 19.9 g and 20.7 g and 22 g and 19.3 g
- Body weight ([2]; PSP trimer 10 μmol intraperitoneal, day 15): 21.9 g
- Body weight ([2]; PSP trimer 10 μmol intraperitoneal, day 17): 21.2 g
